Laboratory results: ChEMBL document CHEMBL1201862, “PubChem BioAssay data set” (2004)
Activity calls are given as the source filed them.

How the values were obtained:
Kallikrein-7 = Kallikrein-7 (Homo sapiens, UniProt P49862); test: Fluorescence Intensity-based biochemical primary high throughput dose response assay to identify activators of kallikrein-7 (K7) zymogen.
[1] = inhibition of Env-driven cell fusion – HIV entry, plate reader, dry powder, dose response (AID 687023); format: functional, cell-based
[2] = inhibitors of orthopox intermediate gene expression, dose response, cell-based, single fluorophore reporter, dry powder (AID 1117271); format: functional
[3] = lung carcinoma cell viability loss – CellTiter-Glo luminescence, dry powder, set 17, dose response (AID 1117284); format: functional, cell-based; details: A549
[4] = Orthopox viral replication plaque formation Measured in Cell-Based and Microorganism Combination System Using Imaging - 2142-05_Inhibitor_Dose_DryPowder_Activity.; format: functional
[5] = Single fluorophore orthopox expression reporter, late gene expression Measured in Cell-Based and Microorganism Combination System Using Plate Reader - 2142-08_Inhibitor_Dose_DryPowder_Activity.; format: functional
[6] = target: T1, Low molecular weight phosphotyrosine protein phosphatase (Homo sapiens, UniProt P24666); test: inhibition of human LMPTP enzyme activity – biochemical, absorbance, pNPP substrate, LMPTP-A isoform, set 2, orthogonal assay, dose response (AID 743308); format: functional
T1 sequence (P24666 whole entry): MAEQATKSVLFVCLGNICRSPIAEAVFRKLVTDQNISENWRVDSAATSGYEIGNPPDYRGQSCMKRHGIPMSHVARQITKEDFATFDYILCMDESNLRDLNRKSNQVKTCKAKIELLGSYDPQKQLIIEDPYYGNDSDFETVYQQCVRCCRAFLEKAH

[7] = target: T1, Low molecular weight phosphotyrosine protein phosphatase; test: inhibition of LMPTP-A enzymatic activity – biochemical, OMFP substrate, fluorescence intensity, set 2, dose response (AID 743307); format: functional
[8] = growth inhibition of PfATP4-mutant resistant parasites – NITD609-resistant line, SYBR Green, dry powder, dose response (AID 1159571); format: functional, cell-based;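 also: parasites synchronized at ring stage by sorbitol before testing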
[9] = Dd2 malaria parasite growth inhibition potency – SYBR Green, dry powder samples, dose response (AID 1159566); format: functional, cell-based;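 also: potency for growth inhibition with lower SYBR green DNA signal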
[10] = growth inhibition of yeast DHODH-expressing 3D7 parasites – SYBR Green, dry powder samples, dose response (AID 1159570); format: functional, cell-based;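 also: parasite growth measured after 72 hours of compound exposure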
[11] = P. falciparum Dd2 growth inhibitors, dose response, SYBR Green, cherry-picked samples (AID 1159567); format: functional, cell-based
[12] = Plasmodium falciparum Dd2 Sybr green parasite growth Measured in Cell-Based and Microorganism Combination System Using Plate Reader - 2153-01_Inhibitor_Dose_DryPowder_Activity_Set3.; format: functional
[13] = Dd2 parasite growth inhibition in erythrocytes – SYBR Green, dry powder samples, set 9, dose response (AID 1159568); format: functional, cell-based
[14] = toxicity to human hepatoma HepG2 cells – cell-based, cherry-picked samples, cytotoxicity control, dose response (AID 1159577); format: functional
[15] = toxicity to human HepG2 hepatoma cells – cell-based, plate reader, dry powder samples, cytotoxicity control, dose response (AID 1159569); format: functional;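 also: inhibitor potency with signal falling toward the positive control level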
[16] = Dd2 parasite growth inhibition in erythrocytes – SYBR Green, dry powder samples, set 4, dose response (AID 1159572); format: functional, cell-based
[17] = RKO cell viability reduction, dose response, CellTiter-Glo luminescence (AID 1117322); format: functional
[18] = rise of 2N DNA cells, HeLa – IC50, dose response (AID 1117349); format: functional, cell-based
[19] = SNU-C1 cell viability reduction, dose response, CellTiter-Glo luminescence (AID 1117323); format: functional, cell-based
BJ [20] = test: growth inhibition of engineered Ras-driven BJ cells – cell-based, alamar blue fluorescence, cherrypicked samples, dose response (AID 2631); format: functional; details: Homo sapiens;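 also: confirmatory dose-response assay in RAS-dependent BJ fibroblasts engineered with TERT, LT and ST, with cytotoxicity read by fluorescence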
[21] = DRD fibroblast viability loss – cell-based, non-viral oncogenic, luminescence, dose response (AID 1934); format: functional; details: Homo sapiens
[22] = CellTiter-Glo luminescence survival assay, SW480 colon tumor line, concentration-response curve, half-maximal inhibitory concentration (AID 1117338); format: functional
[23] = cytotoxicity toward HCT116 cells – cell-based, CellTiter-Glo luminescence, IC50, dose response (AID 1117332); format: functional; details: HCT-116
[24] = rise of 4N DNA cells, HeLa – IC50, dose response (AID 1117351); format: functional, cell-based
[25] = cytotoxicity toward HT-29 cells – cell-based, CellTiter-Glo luminescence, IC50, dose response (AID 1117330); format: functional
[26] = HCT116 cell viability decrease, GSK3B pretreatment – CellTiter-Glo, IC50, dose response (AID 1117339); format: functional; details: HCT-116
BJ [27] = test: cells; format: functional, cell-based; details: Homo sapiens
BJ [28] = test: BJ-TERT-LT-ST fibroblast viability loss – cell-based, RAS-independent, luminescence, dose response (AID 1935); format: functional; details: Homo sapiens;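 also: BJ fibroblasts immortalized with TERT plus LT and ST oncogenes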
[29] = cytotoxicity toward Colo320 cells – cell-based, CellTiter-Glo luminescence, IC50, dose response (AID 1117334); format: functional; details: COLO 320
[30] = Reduced DLD-1 viability, concentration-response, CellTiter-Glo luminescence (AID 1117352); format: functional
BJ [31] = test: BJ-TERT fibroblast viability loss – cell-based, RAS-independent, luminescence, dose response (AID 1933); format: functional; details: Homo sapiens
cells = format: functional, cell-based; details: INS-1E
[32] = IC50 of insulin release inhibition, rat insulinoma INS-1E line, 5 mM glucose, cell-based (AID 1117331); format: functional

Kallikrein-7, sequence (P49862 whole entry, the tested form may be a part): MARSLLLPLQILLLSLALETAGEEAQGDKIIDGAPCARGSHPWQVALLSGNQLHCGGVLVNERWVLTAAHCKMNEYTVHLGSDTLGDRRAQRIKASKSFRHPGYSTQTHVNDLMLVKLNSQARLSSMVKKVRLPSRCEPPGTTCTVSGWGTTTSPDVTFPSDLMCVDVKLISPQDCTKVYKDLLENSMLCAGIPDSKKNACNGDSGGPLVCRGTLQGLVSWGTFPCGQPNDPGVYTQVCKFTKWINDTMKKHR

CN(C)c1ccc(-c2cccc3nccn23)cc1
EC50 (Kallikrein-7): > 69500 nM (inactive)

Cc1noc(C)c1S(=O)(=O)Nc1cccc2c1O[C@H](CN(C)Cc1ccc(C(F)(F)F)cc1)[C@@H](C)CN([C@@H](C)CO)C2=O
AC50 [1]: > 70000 nM (inactive)

Cc1ccccc1-c1ccc(CN(C)C[C@@H]2Oc3cc(C#C[C@@H](C)O)ccc3S(=O)(=O)N([C@@H](C)CO)C[C@@H]2C)cc1
AC50 [2]: 1650 nM (active)
AC50 [3]: 34600 nM (active)
AC50 [4]: 2000 nM (active)
AC50 [5]: 768 nM (active)

Cc1ccc(-c2cc(NCCCN3CCCCC3)c3ccccc3n2)cc1
IC50 [6]: 2990 nM (active)
IC50 [7]: 1340 nM (active)

COc1ccccc1NC(=O)Nc1ccc2c(c1)OC[C@@H](C)N(Cc1ccccc1Cl)C[C@@H](C)[C@H](OC)CN(C)C2=O
AC50 [8]: 220 nM (active)
AC50 [9]: 16 nM (active)
AC50 [10]: 874 nM (active)
AC50 [11]: < 300 nM (active)
AC50 [12]: 181 nM (active)
AC50 [13]: 30.5 nM (active)

COc1ccc2c3c([nH]c2c1)[C@H](CO)N(C(=O)Cc1ccccc1)CC31CCN(C(=O)Nc2ccccc2F)CC1
AC50 [14]: 25200 nM (active)
AC50 [15]: > 100000 nM (inactive)
AC50 [8]: 123 nM (active)
AC50 [9]: 208 nM (active)
AC50 [10]: 97.7 nM (active)
AC50 [16]: 277 nM (active)
AC50 [11]: 472 nM (active)

COCc1c(C(C)C)nc(C(C)C)c(/C=C/[C@@H](O)C[C@@H](O)CC(=O)O)c1-c1ccc(F)cc1 [CERIVASTATIN SODIUM]
IC50 [17]: 1010 nM (active)
IC50 [18]: > 10000 nM (inactive)
IC50 [19]: 1870 nM (active)
EC50 (BJ [20]): < 104 nM (active)
EC50 [21]: 338 nM (inconclusive)
IC50 [22]: 143 nM (active)
IC50 [23]: 240 nM (active)
IC50 [24]: > 10000 nM (inactive)
IC50 [25]: 1210 nM (active)
IC50 [26]: 52.9 nM (active)
EC50 (BJ [27]): 347 nM (inconclusive)
EC50 (BJ [28]): 356 nM (inconclusive)
IC50 [29]: 1920 nM (active)
IC50 [30]: 2510 nM (active)
EC50 (BJ [31]): 339 nM (inconclusive)

CC(C)(C)c1nnc(NS(=O)(=O)c2ccccc2)s1 [GLYBUZOLE]
IC50 (cells): > 33300 nM (inactive)
IC50 [32]: 13100 nM (inactive)
